In patent US20080004302A1, “Novel Compounds” (ASTRAZENECA AB, priority 2006, published 2008):
pIC50: −log10 of the molar value. Where a name gives a salt, the structure may show the parent alone.

Key:
[1] = target: T1, FGFR1 IIIc (Homo sapiens, UniProt P11362); experiment: Cell based inhibition of transiently expressed FGFR1 IIIc phosphorylation (Cos-1 cells); settings: Cos-1 cells, phospho-FGFR1; upper bound of bin; read-out: IC50
T1 construct: host or cells: Cos-1
Procedure: This assay is designed to detect inhibitors of transiently expressed FGFR1 phosphorylation by antibody staining of fixed cells detected using ArrayScan technology.
To undertake the assay, Cos-1 cells were harvested at 90-95% confluence for cell transfection. For each 96-well plate, 24 ul Lipofectamine 2000 was added to 809 ul OptiMEM and incubated at room temperature for 5 minutes. […] Equal volumes of DNA and Lipofectamine 2000 were combined (DNA: Lipid=1:1.2 ratio) and incubated at room temperature for 20 minutes.
The harvested Cos-1 cells are counted using a coulter counter and diluted further with 1% FCS/DMEM to 2.5×10^5 cells/ml. For each 96-well, 8.33 ml cells were required. […] Media was removed from the wells using vacuum aspiration; cells were fixed by adding 50μl of 100% methanol to each well and incubated at room temperature for 20 minutes.
The plates were read on an Arrayscan (Cellomics).

[2] = target: T1, FGFR1 IIIc; experiment: Cell based inhibition of transiently expressed FGFR1 IIIc phosphorylation via use of ECHO technology (Cos-1 cells); settings: Cos-1 cells, phospho-FGFR1, ECHO dosing; upper bound of bin; read-out: IC50
[3] = target: FGFR1 kinase (Homo sapiens, UniProt P11362); experiment: Kinase assay (using Caliper technology); assay type: biochemical; settings: FGFR1 kinase, Caliper; upper bound of bin; read-out: IC50
In short: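 Human FGFR1 kinase activity measured with a 13-mer fluorescently tagged FGFR1-specific peptide substrate; compounds serially diluted in 5% (v/v) DMSO. Reactions ran 1.5 h at room temperature, stopped with EDTA-containing HEPES pH 7.5 buffer. Phosphorylated and unphosphorylated peptide separated by microfluidic mobility shift.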

[4] = target: T2, human IGF1R (Homo sapiens, UniProt P08069); experiment: Inhibition of insulin-like growth factor-1 receptor phosphorylation in R+ cells; assay type: cell-based; settings: 30 nM IGF1, read-out: IGF cell class
T2 construct: expressed in transfected cells; host or cells: R+ cells (R- mouse fibroblasts transfected with human IGF1R)

[5] = test system: Erk phosphorylation; experiment: Growth factor (bFGF) stimulated Erk phosphorylation in NIH 3T3 cells; settings: Mus musculus
[6] = NIH3T3, NIH 3T3 cells, 3 ng/ml bFGF, upper bound of bin

T2 sequence (P08069 31-1367): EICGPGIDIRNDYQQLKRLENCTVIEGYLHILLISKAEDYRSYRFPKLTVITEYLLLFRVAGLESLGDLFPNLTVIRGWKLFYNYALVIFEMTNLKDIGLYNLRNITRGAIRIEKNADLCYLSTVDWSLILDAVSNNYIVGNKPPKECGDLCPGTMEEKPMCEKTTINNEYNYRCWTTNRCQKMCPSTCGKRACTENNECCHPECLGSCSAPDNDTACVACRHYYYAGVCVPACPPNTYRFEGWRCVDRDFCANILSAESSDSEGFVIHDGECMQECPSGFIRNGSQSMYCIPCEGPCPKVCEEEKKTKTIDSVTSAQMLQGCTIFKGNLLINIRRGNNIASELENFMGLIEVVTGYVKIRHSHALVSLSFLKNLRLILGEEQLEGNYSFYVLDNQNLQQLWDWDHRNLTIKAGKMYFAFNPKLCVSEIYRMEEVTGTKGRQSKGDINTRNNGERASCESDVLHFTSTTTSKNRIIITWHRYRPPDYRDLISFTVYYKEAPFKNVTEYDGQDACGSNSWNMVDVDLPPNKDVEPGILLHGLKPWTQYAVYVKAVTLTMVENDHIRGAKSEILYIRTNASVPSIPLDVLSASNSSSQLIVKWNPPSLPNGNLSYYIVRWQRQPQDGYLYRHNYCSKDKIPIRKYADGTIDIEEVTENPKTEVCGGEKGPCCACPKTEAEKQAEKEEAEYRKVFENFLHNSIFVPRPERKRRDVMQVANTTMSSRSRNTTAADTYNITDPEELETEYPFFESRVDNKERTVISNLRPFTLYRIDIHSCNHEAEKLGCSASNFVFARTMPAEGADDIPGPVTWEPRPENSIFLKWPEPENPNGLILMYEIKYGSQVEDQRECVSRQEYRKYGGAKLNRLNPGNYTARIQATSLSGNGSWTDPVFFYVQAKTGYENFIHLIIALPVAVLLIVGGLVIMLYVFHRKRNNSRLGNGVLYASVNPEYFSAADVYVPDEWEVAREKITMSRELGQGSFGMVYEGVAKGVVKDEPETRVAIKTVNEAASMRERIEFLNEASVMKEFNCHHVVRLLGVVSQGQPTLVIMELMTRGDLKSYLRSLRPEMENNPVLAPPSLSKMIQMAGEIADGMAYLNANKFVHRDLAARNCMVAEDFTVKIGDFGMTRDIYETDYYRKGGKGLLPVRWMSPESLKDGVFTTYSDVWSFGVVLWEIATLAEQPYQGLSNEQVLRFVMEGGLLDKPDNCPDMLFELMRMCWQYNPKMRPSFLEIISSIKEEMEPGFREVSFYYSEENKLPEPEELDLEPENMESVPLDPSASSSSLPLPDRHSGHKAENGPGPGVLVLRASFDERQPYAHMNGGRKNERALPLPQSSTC
Sequence of FGFR1 kinase (P11362 22-822): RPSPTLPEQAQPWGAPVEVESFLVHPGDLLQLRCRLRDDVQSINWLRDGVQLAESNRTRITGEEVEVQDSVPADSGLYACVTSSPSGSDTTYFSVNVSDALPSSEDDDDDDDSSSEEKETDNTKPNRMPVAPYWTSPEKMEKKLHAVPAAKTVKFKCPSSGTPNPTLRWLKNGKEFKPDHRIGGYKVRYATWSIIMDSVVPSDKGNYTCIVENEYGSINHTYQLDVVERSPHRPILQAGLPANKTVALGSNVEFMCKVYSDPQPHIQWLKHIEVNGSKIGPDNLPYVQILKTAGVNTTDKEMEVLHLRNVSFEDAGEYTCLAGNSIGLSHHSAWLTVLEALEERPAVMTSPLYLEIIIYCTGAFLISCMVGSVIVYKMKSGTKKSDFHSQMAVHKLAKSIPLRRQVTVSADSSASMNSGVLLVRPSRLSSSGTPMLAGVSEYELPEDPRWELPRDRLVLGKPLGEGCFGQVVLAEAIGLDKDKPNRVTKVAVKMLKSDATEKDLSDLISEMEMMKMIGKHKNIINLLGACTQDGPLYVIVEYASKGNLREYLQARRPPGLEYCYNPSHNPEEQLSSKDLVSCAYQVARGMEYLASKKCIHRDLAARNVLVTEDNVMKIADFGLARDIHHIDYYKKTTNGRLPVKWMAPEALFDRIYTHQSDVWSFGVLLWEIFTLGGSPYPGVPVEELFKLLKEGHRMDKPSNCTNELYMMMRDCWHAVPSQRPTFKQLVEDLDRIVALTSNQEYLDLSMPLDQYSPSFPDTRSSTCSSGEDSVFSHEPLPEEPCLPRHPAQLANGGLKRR
T1 sequence (P11362 22-822): as above

SMILES	pIC50 [1]	pIC50 [2]	pIC50 [3]	pIC50 [4]	pIC50 [5, 6]	pIC50 ([5]; NIH3T3)
Cc1cc(CNc2nccc(Nc3cc(COc4ccccc4)[nH]n3)n2)on1 [Example 34, N-[(3-methyl-1,2-oxazol-5-yl)methyl]-N′-[5-(phenoxymethyl)-2H-pyrazol-3-yl]pyrimidine-2,4-diamine]	> 5.00	–	> 5.00	< 5.00	> 5.00	–
COc1ccc(OC)c(CCc2cc(Nc3ccnc(NCc4cc(C)no4)n3)n[nH]2)c1 [Example 45, N′-[5-[2-(2,5-dimethoxyphenyl)ethyl]-2H-pyrazol-3-yl]-N-[(3-methyl1,2-oxazol-5-yl)methyl]pyrimidine-2,4-diamine]	> 5.00	–	> 6.00	–	–	–
COc1ccc(CCc2cc(Nc3ccnc(NCc4cc(C)no4)n3)n[nH]2)cc1OC [Example 46, N′-[5-[2-(3,4-dimethoxyphenyl)ethyl]-1H-pyrazol-3-yl]-N-[(3-methyl1,2-oxazol-5-yl)methyl]pyrimidine-2,4-diamine hydrochloride]	> 5.00	–	–	5.00 to 6.00	–	> 5.00
Cc1cc(CNc2nccc(Nc3cc(CCc4cccc(CN)c4)[nH]n3)n2)on1 [Example 58, N′-[5-[2-[3-(aminomethyl)phenyl]ethyl]-1H-pyrazol-3-yl]-N-[(3-methyl-1,2-oxazol-5-yl)methyl]pyrimidine-2,4-diamine]	> 4.52	> 4.52	> 6.00	–	–	–
Cc1cc(CNc2nccc(Nc3cc(CCc4cccc(C(=O)N(C)C)c4)[nH]n3)n2)on1 [Example 59, N,N-dimethyl-3-[2-[5-[[2-[(3-methyl-1,2-oxazol-5-yl)methylamino]pyrimidin-4-yl]amino]-2H-pyrazol-3-yl]ethyl]benzamide]	> 4.52	> 4.52	> 6.00	–	–	–
COc1ncc(CCc2cc(Nc3ccnc(NCc4cc(C)no4)n3)n[nH]2)c(OC)n1 [Example 60, N′-[5-[2-(2,4-dimethoxypyrimidin-5-yl)ethyl]-1H-pyrazol-3-yl]-N-[(3-methyl-1,2-oxazol-5-yl)methyl]pyrimidine-2,4-diamine]	> 4.52	–	> 6.00	< 5.00	–	–
CN(C)Cc1cc(CNc2nccc(Nc3cc(CCc4cccc(O)c4)n[nH]3)n2)on1 [Example 63, 3-[2-[5-[[2-[[3-(dimethylaminomethyl)-1,2-oxazol-5-yl]methylamino]pyrimidin-4-yl]amino]-1H-pyrazol-3-yl]ethyl]phenol]	> 5.00	> 5.00	> 6.70	–	–	–
CNC(=O)c1cc(CNc2nccc(Nc3cc(CCc4cccc(OC)c4)n[nH]3)n2)on1 [Example 64, 5-[[[4-[[5-[2-(3-methoxyphenyl)ethyl]-2H-pyrazol-3-yl]amino]pyrimidin-2-yl]amino]methyl]-N-methyl-1,2-oxazole-3-carboxamide]	> 5.00	> 5.00	> 6.00	–	–	–
CNC(=O)c1cc(CNc2nccc(Nc3cc(CCc4cccc(O)c4)n[nH]3)n2)on1 [Example 65, 5-[[[4-[[5-[2-(3-hydroxyphenyl)ethyl]-2H-pyrazol-3-yl]amino]pyrimidin-2-yl]amino]methyl]-N-methyl-1,2-oxazole-3-carboxamide]	> 5.00	> 5.00	> 6.70	5.00 to 6.00	–	–
CC(C)Oc1cc(Nc2ccnc(NCc3cc(C(N)=O)no3)n2)[nH]n1 [Example 78, 5-[[[4-[(5-propan-2-yloxy-2H-pyrazol-3-yl)amino]pyrimidin-2-yl]amino]methyl]-1,2-oxazole-3-carboxamide]	> 5.00	–	> 6.70	–	> 6.00	–
Cc1cc(CNc2nccc(Nc3cc(OCc4ccoc4)[nH]n3)n2)on1 [Example 108, N′-[5-(3-furylmethoxy)-1H-pyrazol-3-yl]-N-[(3-methyl1,2-oxazol-5-yl)methyl]pyrimidine-2,4-diamine]	> 5.00	–	> 6.70	–	> 6.00	–
Cc1cc(CNc2nccc(Nc3cc(CCc4ccncc4)[nH]n3)n2)on1 [Example 116, N-[(3-methyl-1,2-oxazol-5-yl)methyl]-N′-[5-(2-pyridin-4-ylethyl)-2H-pyrazol-3-yl]pyrimidine-2,4-diamine]	> 4.52	–	> 5.00	< 5.00	–	–
Cc1cc(CNc2nccc(Nc3cc(CCc4cn(C)cn4)[nH]n3)n2)on1 [Example 119, N′-[5-[2-(1-methylimidazol-4-yl)ethyl]-1H-pyrazol-3-yl]-N-[(3-methyl-1,2-oxazol-5-yl)methyl]pyrimidine-2,4-diamine]	> 4.52	–	> 5.00	–	–	–
Cc1cc(CNc2nccc(Nc3cc(CCc4ccc(CN(C)C)o4)[nH]n3)n2)on1 [Example 121, N′-[5-[2-[5-(dimethylaminomethyl)-2-furyl]ethyl]-1H-pyrazol-3-yl]-N-[(3-methyl-1,2-oxazol-5-yl)methyl]pyrimidine-2,4-diamine]	> 4.52	–	> 6.00	–	–	–

Further lines, with some results ahead:

pIC50 [1]	pIC50 [2]	pIC50 [3]	pIC50 [4]	SMILES	pIC50 [5, 6]	pIC50 ([5]; NIH3T3)
> 6.70	> 6.00	–	–	Cc1cc(CNc2nccc(Nc3cc(C4CCCC4)[nH]n3)n2)on1 [Example 13, N′-(5-cyclopentyl-2H-pyrazol-3-yl)-N-[(3-methyl-1,2-oxazol-5-yl)methyl]pyrimidine-2,4-diamine]	–	–
> 6.70	> 6.70	> 6.70	–	c1cc(Nc2cc(C3CCCC3)[nH]n2)nc(NCc2cc(C3CC3)no2)n1 [Example 14, N′-(5-cyclopentyl-2H-pyrazol-3-yl)-N-[(3-cyclopropyl-1,2-oxazol-5-yl)methyl]pyrimidine-2,4-diamine]	–	–
> 6.00	> 6.70	> 6.70	–	CC(C)Cc1cc(Nc2ccnc(NCc3cc(C4CC4)no3)n2)n[nH]1 [Example 16, N-[(3-cyclopropyl-1,2-oxazol-5-yl)methyl]-N′-[5-(2-methylpropyl)-2H-pyrazol-3-yl]pyrimidine-2,4-diamine]	–	–
> 5.00	–	> 6.00	< 5.00	COc1ccccc1CCc1cc(Nc2ccnc(NCc3cc(C)no3)n2)n[nH]1 [Example 31, N′-[5-[2-(2-methoxyphenyl)ethyl]-1H-pyrazol-3-yl]-N-[(3-methyl1,2-oxazol-5-yl)methyl]pyrimidine-2,4-diamine hydrochloride]	> 5.00	–
> 6.70	> 6.70	> 6.70	5.00 to 6.00	Oc1cccc(CCc2cc(Nc3ccnc(NCc4cc(C5CC5)no4)n3)n[nH]2)c1 [Example 56, 3-[2-[5-[[2-[(3-cyclopropyl-1,2-oxazol-5-yl)methylamino]pyrimidin-4-yl]amino]-1H-pyrazol-3-yl]ethyl]phenol]	–	–
> 6.70	> 6.00	> 6.00	–	Cc1cc(CNc2nccc(Nc3cc(CCc4cc(F)cc(Cl)c4)[nH]n3)n2)on1 [Example 57, N′-[5-[2-(3-chloro-5-fluoro-phenyl)ethyl]-2H-pyrazol-3-yl]-N-[(3-methyl-1,2-oxazol-5-yl)methyl]pyrimidine-2,4-diamine]	–	–
> 6.00	–	> 6.70	< 5.00	COc1cccc(CCc2cc(Nc3ccnc(NCc4cc(CO)no4)n3)[nH]n2)c1 [Example 61, [5-[[[4-[[5-[2-(3-methoxyphenyl)ethyl]-2H-pyrazol-3-yl]amino]pyrimidin-2-yl]amino]methyl]-1,2-oxazol-3-yl]methanol]	–	–
> 6.00	> 6.00	> 6.00	< 5.00	COc1cc(CCc2cc(Nc3ccnc(NCc4cc(C)no4)n3)n[nH]2)c(F)cn1 [Example 62, N′-[5-[2-(5-fluoro-2-methoxy-pyridin-4-yl)ethyl]-1H-pyrazol-3-yl]-N-[(3-methyl-1,2-oxazol-5-yl)methyl]pyrimidine-2,4-diamine hydrochloride]	–	–
> 6.70	> 6.70	> 6.70	6.00 to 7.00	CC(C)Oc1cc(Nc2ccnc(NCc3cc(C4CCC4)no3)n2)n[nH]1 [Example 102, N-[(3-cyclobutyl-1,2-oxazol-5-yl)methyl]-N′-(5-propan-2-yloxy-1H-pyrazol-3-yl)pyrimidine-2,4-diamine]	–	–
> 6.70	> 6.70	> 6.70	5.00 to 6.00	c1ccc(COc2cc(Nc3ccnc(NCc4cc(C5CC5)no4)n3)n[nH]2)cc1 [Example 103, N-[(3-cyclopropyl-1,2-oxazol-5-yl)methyl]-N′-(5-phenylmethoxy-2H-pyrazol-3-yl)pyrimidine-2,4-diamine]	–	–
> 6.00	> 6.70	> 6.70	5.00 to 6.00	c1coc(-c2cc(Nc3ccnc(NCc4cc(C5CC5)no4)n3)n[nH]2)c1 [Example 120, N-[(3-cyclopropyl-1,2-oxazol-5-yl)methyl]-N′-[5-(2-furyl)-2H-pyrazol-3-yl]pyrimidine-2,4-diamine]	–	–
